Measured values published in PMC11085442 (Molecules, 2024).
≈ marks a conversion by molar mass, not a printed value.

Legend:
[1] = test system: PC 12 cell line; assay: Cytotoxicity assay (CCK-8) on PC 12; assay type: cell-based, rat; conditions: 20 μM
Method: RAW264.7 cells were cultured in 96-well plates at a density of 3 × 10^4 cells/mL in Dulbecco’s modified Eagle’s medium (DMEM, Gibco, Baltimore, MD, USA) with 10% fetal calf serum (Gibco, Baltimore, MD, USA), 100 U/mL penicillin, and 100 μg/mL streptomycin. Plates were incubated in an atmosphere containing 5% CO2 at […]. PC 12 cells were cultured in 96-well plates at a density of 8000 cells/mL in Dulbecco’s modified Eagle’s medium (DMEM, Gibco, Baltimore, MD, USA) with 10% fetal calf serum (Gibco, Baltimore, MD, USA), 100 U/mL penicillin, and 100 μg/mL streptomycin. Plates were incubated in an atmosphere containing 5% CO2 at 37 °C. Cells were treated with different concentrations of test compounds for 48 h. Then, 10 μL CCK-8 solution were added to all the wells. After 4 h incubation, the absorbance at 450 nm of each well was measured in a multiscan photometer.

[2] = test system: LPS-stimulated RAW264.7 cell lines; assay: LPS-induced NO production (Griess) in RAW264.7; assay type: cell-based, murine; conditions: for The production of NO: LPS-stimulated RAW264.7, LPS group 49.86 ± 0.62, control 1.20 ± 0.38; for inhibitory activity against NO production compared with curcumin: 10 μM
Method: RAW 264.7 cells were plated in 96-well plates at a density of 1 × 10^4 cells/well and incubated overnight at 37 °C under 5% CO2. […] Dexamethasone (Solarbio, D8040, Beijing, China) was used as the positive control. Then, 24 h later, NO production was determined by measuring the nitrite content using Griess reagents. Fifty microliters of culture supernatants were transferred to 96-well plates and mixed with 50 μL Griess reagent A. After incubation at room temperature for 5 min, the samples were mixed with an equal volume Griess reagent B for another 5 min. The absorbance of each mixture at 540 nm was measured using a microplate reader.

[3] = test system: H2O2-stimulated PC 12 cell lines; assay: Protection against H2O2-induced oxidative damage (CCK-8); assay type: cell-based, rat; conditions: for anti-oxidant capacity compared with curcumin: 10 μM; for anti-oxidant capacity compared with curcumin / cell survival rate (anti-oxidant): H2O2-stimulated PC 12; for viability at 5 µM / viability at 10 µM / viability at 20 µM: Rattus norvegicus; for viability at 5 µM: PC-12, Dose 5 μM; for viability at 5 µM / viability at 10 µM / viability at 20 µM / Cell viability: H2O2-induced oxidative damage, PC 12, H2O2 group 49.69 ± 1.37, control 100; for viability at 10 µM: PC-12, Dose 10 μM; for viability at 20 µM: PC-12, Dose 20 μM; for Cell viability: in % (unit assumed); for cell survival rate (anti-oxidant): at 20 μM
Method: PC 12 cells were seeded in 96-well plates at a density of 8000 cells/well and incubated overnight. […] After incubating under the same conditions for 24 h, 10 μL CCK-8 solution was added to each well. After 2 h incubation, the absorbance of each well was measured at 450 nm using a microplated reader (Multiskan MK-3, Thermo, Waltham, MA, USA).

[4] = test system: PC 12 cell lines; assay: Radiation protection in vitro (CCK-8); assay type: cell-based, rat; conditions: for radiation protection capacity / radiation protection capability compared with curcumin: 10 μM; for radiation protection capacity: versus radiation group; for Cell viability / viability at 5 µM / viability at 10 µM / viability at 20 µM: radiation 8.0 Gy, PC 12, radiation group 50.22 ± 1.08; for Cell viability: in % (unit assumed); for viability at 5 µM / viability at 10 µM / viability at 20 µM: Rattus norvegicus; for viability at 5 µM: PC-12, Dose 5 μM; for viability at 10 µM: PC-12, Dose 10 μM; for viability at 20 µM: PC-12, Dose 20 μM
Method: The rat adrenal pheochromocytoma cells (PC 12) were used for in vitro studies. A Cell Counting Kit-8 (CCK-8, Applygen Technologies Co., Ltd., Beijing, China) assay was used to determine cell viability. […] Cells were irradiated with dose of 8.0 Gy at a dose rate of 0.8 Gy/min. Then, 10 μL CCK-8 solution was added to all the wells. After 4 h incubation, the absorbance at 450 nm of each well was measured in a multiscan photometer.

[5] = Aqueous solubility determination by UV spectrophotometer; assay type: physicochemical; conditions: water, thermodynamic from solid, saturated solution concentration
Method: A UV spectrophotometer was used to test the aqueous solubility of target compounds. Each compound to be tested was prepared into solutions with concentrations of 0.2 M, 0.1 M, 0.05 M, 0.025 M, 0.0125 M, 0.00625 M, and 0.003125 M. The optical density (OD) values of the prepared solutions were measured using an ultraviolet spectrophotometer, and concentration–OD-value standard curves were drawn for each compound to be tested. The saturated solutions of the target compounds were diluted by 5000 times and detected using an ultraviolet spectrophotometer to measure the OD values, respectively. The measured OD values were substituted into the corresponding concentration-OD value standard curve to calculate the diluted concentrations, which were multiplied by 5000 to obtain the saturated solution concentrations of the target compounds.

[6] = cited from earlier work

In the case of COc1ccc(/C=C/C(=O)CC(=O)/C=C/c2cc(CN(C)C)c(O)c(OC)c2)cc1OC [Compound 5], the “effect on PC 12 cell proliferation” value [1] is reported as “significant promoting effect”, the “The production of NO” value ([2]; Dose 5 μM) is reported as 34.62 ± 0.76 and the “The production of NO” value ([2]; Dose 10 μM) is reported as 16.89 ± 1.33. For the same molecule, the “The production of NO” value ([2]; Dose 15 μM) was 9.97 ± 1.11, the “anti-oxidant capacity compared with curcumin” value [3] was “better anti-oxidant capacity” and the viability at 5 µM [3] was 71.02 ± 0.56%. The viability at 10 µM [3] was 84.4 ± 1.86%, the viability at 20 µM [3] was 103 ± 3.36% and the radiation protection capacity [4] was “a certain degree of radiation protection capacity”. The Cell viability ([4]; Dose 5 μM) was 58.70 ± 4.93, the Cell viability ([4]; Dose 10 μM) was 64.93 ± 4.67 and the Cell viability ([4]; Dose 20 μM) was 104.23 ± 2.86.
For COc1cc(/C=C/C(=O)CC(=O)/C=C/c2ccc(OC)c(OC)c2OC)cc(CN(C)C)c1O [Compound 6a], the “effect on PC 12 cell proliferation” value [1] was “significant promoting effect”, the “inhibitory activity against NO production compared with curcumin” value [2] was “better inhibitory activity” and the “The production of NO” value ([2]; Dose 5 μM) was 27.02 ± 2.91. The “The production of NO” value ([2]; Dose 10 μM) was 14.29 ± 1.71, the “The production of NO” value ([2]; Dose 15 μM) was 5.23 ± 0.72 and the Cell viability ([3]; Dose 5 μM) was 60.05 ± 5.39. The Cell viability ([3]; Dose 10 μM) was 76.41 ± 2.29, the Cell viability ([3]; Dose 20 μM) was 100.96 ± 1.07 and the “radiation protection capability compared with curcumin” value ([4]; irradiated PC 12) was “better radiation protection capability”. The radiation protection capacity [4] was “a certain degree of radiation protection capacity”, the viability at 5 µM [4] was 65.6 ± 2.17% and the viability at 10 µM [4] was 71.7 ± 2.56%. For the same molecule, the viability at 20 µM [4] was 84.9 ± 6.57% and the solubility [5] was 112 mg/mL (≈ 239 mM).
In the case of COc1cc(/C=C/C(=O)CC(=O)/C=C/c2ccc(O)c(OC)c2)ccc1O [Curcumin, curcumin, reference compound], the “The production of NO” value ([2]; Dose 5 μM) is reported as 37.00 ± 1.12, the “The production of NO” value ([2]; Dose 10 μM) is reported as 21.55 ± 1.29 and the “The production of NO” value ([2]; Dose 15 μM) is reported as 5.96 ± 0.03. The viability at 5 µM [3] was 59.6 ± 2.21%, the viability at 10 µM [3] was 71.8 ± 1.52% and the viability at 20 µM [3] was 86.4 ± 1.28%. The viability at 5 µM [4] was 55.1 ± 1.37%, the viability at 10 µM [4] was 59.39 ± 0.57% and the viability at 20 µM [4] was 75.47 ± 0.68%. For the same molecule, the aqueous solubility [6] was less than 0.1 mg/mL.
For COc1ccc(/C=C/C(=O)CC(=O)/C=C/c2cc(CN(C)C)c(O)c(OC)c2)cc1OC [Compound 5a], the “effect on PC 12 cell proliferation” value [1] was “significant promoting effect”, the “inhibitory activity against NO production compared with curcumin” value [2] was “better inhibitory activity” and the “The production of NO” value ([2]; Dose 5 μM) was 33.90 ± 1.94. For the same molecule, the “The production of NO” value ([2]; Dose 10 μM) was 15.60 ± 2.78, the “The production of NO” value ([2]; Dose 15 μM) was 9.88 ± 0.53 and the “anti-oxidant capacity compared with curcumin” value [3] was “better anti-oxidant capacity”. For the same molecule, the Cell viability ([3]; Dose 5 μM) was 75.15 ± 5.90, the Cell viability ([3]; Dose 10 μM) was 84.53 ± 2.36 and the Cell viability ([3]; Dose 20 μM) was 106.17 ± 3.34. For the same molecule, the “cell survival rate (anti-oxidant)” value [3] was 106%, the “radiation protection capability compared with curcumin” value ([4]; irradiated PC 12) was “better radiation protection capability” and the radiation protection capacity [4] was “a certain degree of radiation protection capacity”. For the same molecule, the viability at 5 µM [4] was 58.2 ± 1.86%, the viability at 10 µM [4] was 68.7 ± 5.9% and the viability at 20 µM [4] was 105 ± 5.01%. It also gave a solubility [5] of 118 mg/mL (≈ 268 mM).
For CCOc1cc(/C=C/C(=O)CC(=O)/C=C/c2cc(CN(C)C)c(O)c(OC)c2)ccc1O [Compound 1], the “effect on PC 12 cell proliferation” value [1] was “significant promoting effect”, the “The production of NO” value ([2]; Dose 5 μM) was 44.55 ± 0.55 and the “The production of NO” value ([2]; Dose 10 μM) was 34.25 ± 0.96. For the same molecule, the “The production of NO” value ([2]; Dose 15 μM) was 12.30 ± 0.90, the viability at 5 µM [3] was 63.9 ± 2.86% and the viability at 10 µM [3] was 74.7 ± 4.82%. The viability at 20 µM [3] was 86.4 ± 3.89%, the radiation protection capacity [4] was “a certain degree of radiation protection capacity” and the Cell viability ([4]; Dose 5 μM) was 47.61 ± 1.20. It also gave a Cell viability ([4]; Dose 10 μM) of 57.30 ± 1.29 and a viability at 20 µM [4] of 89.7 ± 8.17%.
With COc1ccc(/C=C/C(=O)CC(=O)/C=C/c2cc(CN(C)C)c(O)c(OC)c2)cc1O [Compound 11] the “effect on PC 12 cell proliferation” value [1] was “significant promoting effect”, the “The production of NO” value ([2]; Dose 5 μM) was 35.85 ± 0.30 and the “The production of NO” value ([2]; Dose 10 μM) was 19.36 ± 1.66. The “The production of NO” value ([2]; Dose 15 μM) was 7.59 ± 0.35, the Cell viability ([3]; Dose 5 μM) was 63.24 ± 1.07 and the Cell viability ([3]; Dose 10 μM) was 72.52 ± 0.32. For the same molecule, the Cell viability ([3]; Dose 20 μM) was 96.33 ± 1.04, the “cell survival rate (anti-oxidant)” value [3] was 96% and the radiation protection capacity [4] was “a certain degree of radiation protection capacity”. For the same molecule, the viability at 5 µM [4] was 65.09 ± 0.4%, the viability at 10 µM [4] was 84.5 ± 3.4% and the viability at 20 µM [4] was 94.2 ± 4.35%. For the same molecule, the “cell survival rate (radiation protection)” value ([4]; at 20 μM, irradiated PC 12) was 94%.
